From patent US11420994B2, “Carbon-monoxide-releasing molecules and therapeutic applications thereof” (GEORGIA STATE UNIVERSITY RESEARCH FOUNDATION, INC., priority 2016, dated 2022)

What was measured:
[1] = Reaction of TPCPD with cyclooctynes at 50 mM, time to completion; assay type: physicochemical; details: 50 mM concentration
[2] = Determination of CO release rates (fluorescence or UV absorbance); assay type: physicochemical; details: DMSO/PBS (4:1) at 37° C.
Method: For CO prodrugs with naphthalene scaffold, the CO release rate is easily done by monitoring the fluorescence intensity of the cyclized product. For the others, the CO release rate was determined by employing the UV absorbance difference between the prodrugs and the cyclized product.

[3] = Fluorescence properties of the cycloaddition products; assay type: physicochemical; details: for λem emission wavelength / λex excitation wavelength: of the cycloaddition products 44a-44f and 100a; for Φ quantum yield: of the cycloaddition products 44a-44f and 100a in MeOH, quinine sulfate as the standard
RAW cells = assay: WST-1 cytotoxicity test; assay type: cell-based, mouse
Method: In order to assess the cytotoxic effect of the reactants, 1 and 6a, as well as product 31, on RAW cells, the cytotoxicity test WST-1 was performed to examine induction by TPCPD (1) and BCN (6a) over varying concentrations and periods of time (FIGS. 3a-c).
Different concentrations of each molecule were assessed: from 0.78 to 100 μM for 1 and 31 and 7.8 to 1000 μM for 6a. Different time points were assessed (1 h, 4 h, 8 h and 24 h). Triton 0.1% was used as a positive control of cytotoxicity and the subsequent value was established as 100% of cytotoxicity.

[4] = Kinetics of the Diels-Alder reaction of TPCPD with exo-BCN (UV-Vis); assay type: physicochemical
Method: Separate solutions of pure TPCPD (1) and pure exo-BCN (6a) (>95-98% by H-NMR) were prepared in HPLC-grade methanol (acetonitrile, 1,2-dichloroethane, dioxane) at room temperature. The stability of TPCPD in methanol (25 μM) was examined by monitoring its absorption maximum at 335 nm. The solutions containing TPCPD (1, 50 μM, 400 μL) and 18-fold excess of exo-BCN (6a, 900 μM, 400 μL) were added into quartz cuvettes, thoroughly mixed and sealed with a PTFE cap. All kinetic runs were triplicates. Curve fitting was operated in Prism5 software.
The reaction between 1 and 6a (Scheme 8) leads to significant changes in the UV-Vis spectrum of TPCPD […] due to its conversion to the cyclization product 31 (FIG. 1a). Therefore, the reaction can be easily monitored.
It was observed that the reaction rate between TPCPD and BCN was moderately sensitive to the reaction solvent. Methanol, acetonitrile, […] (DCE), and dioxane were chosen for the kinetic studies. The reaction appears to be faster in polar solvents than in nonpolar solvents. […] In order to utilize the reaction under physiological conditions, the reaction rate was measured at physiological temperature, 37° C.

TNF-α = TNF-α ELISA in LPS treated RAW 264.7 cells pre-treated with CO prodrug; assay type: cell-based, mouse; details: pre-treated 5 h, then LPS 1 h
Method: RAW 264.7 cells were seeded in the 48-well plate one day before the experiment.
LPS was used to initialize the inflammatory response in RAW 264.7 cells and trigger the expression of cytokines. RAW 264.7 cells were pre-treated with different concentrations of 10b or 44b product for 5 hours. Thereafter, […] LPS was added with into the cell culture media. For TNF-α test, the cell culture supernatant was collected after 1 hour of LPS treatment. For IL-6 test, the cell culture supernatant was collected after 4 hours of LPS treatment. Cell culture without LPS treatment was used as control.
10a-10d, and 100 with different release rates were chosen to test their inhibitory effect against lipopolysaccharide (LPS) induced TNF-α secretion in RAW 264.7 cells. […] This was followed by the treatment of LPS for another 1 h. Then the cell culture supernatants were subjected to ELISA assay for TNF-α levels.

[5] = CO release kinetics by increase of fluorescence intensity; assay type: physicochemical; details: DMSO/PBS (pH = 7.4) 5:1 at 37° C.
Method: Compound 10a was dissolved indifferent solvents including CH2Cl2 (25° C.), CH3CN (25° C.), DMSO (25° C.), DMSO/PBS (10:1, 25° C.), DMSO/PBS (5:1, 25° C.), and DMSO/PBS (5:1, 37° C.) to give a final concentration of around 100 μM, and CO release was monitored by fluorescence intensity at 450 nm. Each experiment was repeated three times independently. The CO release rate (first order reaction rate) in DCM, CH3CN, DMSO, DMSO/PBS (10:1), DMSO/PBS (5:1), and DMSO/PBS (5:1, 37° C.) were different and their individual rate constant was calculated to be 2.3±0.2, 3.6±0.4, 6.6±0.6, 7.7±0.6, 11.0±1.4 and 22.4±3.2 h^−1, respectively. […] The CO release rate increased along with the polarity of the solvent.

TNBS induced colitis = TNBS induced colitis in mice; assay type: in vivo
Method: Male adult C57BL/6 mice (8-12 weeks, 20-25 g) were obtained from Sichuan University laboratory animal center, and housed in standard conditions with constant temperature (22±2° C.) and 12 h light-dark cycle, free to sterile water and standard food.
TNBS (Trinitrobenzene sulfonic acid) enema was used for colitis induction.^3 Mice were randomly assigned into four groups: sham control group, TNBS model group, 10b treatment group and 44b group. Briefly, mice were fasted for 24 h, and then lightly anesthetized with 1% isoflurane. TNBS (in saline-ethanol, 50:50, v/v) solution 50 μL was infused into the colon using a cannula with the depth of 4 cm from anus. Mice in sham control group received 50 μL vehicle (saline-ethanol, 50:50, v/v). Mice were held with a vertical position for at least 30s after infusion, for sake of homogenous distribution and retention of TNBS. Mice would not be put back to the cage until they wake up and have autonomous respiration.
Drug administration. Vehicle solution (Solutol:saline=30:70), 10b (15 mg/kg) and 44b (15 mg/kg) was i.p. injected 1 hour before model construction; and 24 h, 48 h and 72 h after model construction. Euthanasia was conducted on 1st/3rd/7th day respectively through intraperitoneally injecting of pentobarbital sodium, and samples were removed and analyzed later.
Macroscopic evaluation of colitis damage. Colons were removed quickly and lengths were measured and represented in centimeter. After that, colons were longitudinally excised and carefully washed with ice-cold normal saline. Macroscopic signs of colon damage were evaluated by an experimenter blind to the mice grouping, according to an established semi-quantitative scoring system: Ulcer (0.5 points=0.5 cm); Colonic shortening (1 point≥15%, 2 points≥25%, based on the average length of colons from the control group); Every additional presence of hemorrhage, diarrhea or fecal blood added 1 point to the score. Intestinal wall thickness was measured in millimeter and recorded as well.
Mice were dosed with 10b (15 mg/kg), 44b (15 mg/kg), or the vehicle (solutol/saline=30:70) control by intraperitoneal injection 1 h before the model construction, and then dosed again at 24 h, 48 h and 72 h time points after the model construction; and then sacrificed. Colon was removed for macroscopic evaluation of colitis damage.

[6] = 8 h, within the concentration range studied
[7] = 15 mg/kg i.p., compared to the TNBS group

**Q.** For fluorocyclooctyne [fluorocycolooctyne], which “time after which reaction with TPCPD had not reached completion” value [1] is on record?
**A.** The value was > 24 h.

**Q.** With `C#CC(C)(C)NC(=O)C1=C2C(=C(SC)C1=O)c1cccc3cccc2c13` [Compound 111] as the molecule, how does the “K CO release” value [2] read?
**A.** Its value is 4.63 ± 0.28 h⁻¹.

**Q.** What does the source list for `C#CCOC(=O)C1=C2C(=C(c3ccccc3)C1=O)c1cccc3cccc2c13` [Compound 10e]?
**A.** λem emission wavelength [3]: 454 nm; λex excitation wavelength [3]: 367 nm; Φ quantum yield [3]: 0.14

**Q.** With `OCC1[C@H]2CCC#CCC[C@@H]12` (some centres unmarked) [BCN] as the molecule, how does the cytotoxicity (RAW cells; [6]) read?
**A.** The cytotoxicity was “Neither 6a (FIG. 3b) and nor the product (FIG. 3c) displayed any sign of cytotoxicity”.

**Q.** And the cytotoxicity (RAW cells; 24 h, 1 mM)?
**A.** The cytotoxicity was 60%.

**Q.** And the “time in which reaction with TPCPD finished” value [1]?
**A.** The value was ≤ 5 min.

**Q.** Which “toxicity (Triton 0.1% = 100%)” value (RAW cells; 8 h, 50 μM) does the source give for `O=C1C(c2ccccc2)=C(c2ccccc2)C(c2ccccc2)=C1c1ccccc1` [TPCPD] here?
**A.** Its value is 44%.

**Q.** What about the “toxicity (Triton 0.1% = 100%)” value (RAW cells; 8 h, 100 μM) of the same molecule?
**A.** Its value is 49%.

**Q.** And the cytotoxicity (RAW cells; 24 h, concentrations higher than 12.5 μM)?
**A.** Its cytotoxicity is “more than 50%”.

**Q.** And the “k2 second order rate constant” value ([4]; CH3CN, r.t.)?
**A.** Its value is 0.26 M⁻¹ s⁻¹.

**Q.** And the “k2 second order rate constant” value ([4]; DCE, r.t.)?
**A.** The value was 0.17 M⁻¹ s⁻¹.

**Q.** What about the “k2 second order rate constant” value ([4]; Dioxane, r.t.) of the same molecule?
**A.** Its value is 0.096 M⁻¹ s⁻¹.

**Q.** What about the “k2 second order rate constant” value ([4]; MeOH, 37° C.) of the same molecule?
**A.** The value was 1.1 M⁻¹ s⁻¹.

**Q.** What about the “k2 second order rate constant” value ([4]; MeOH, r.t.) of the same molecule?
**A.** The value was 0.50 M⁻¹ s⁻¹.

**Q.** For `C#CC(C)(C)OC(=O)C1=C2C(=C(c3ccccc3)C1=O)c1cccc3cccc2c13` [Compound 105], which “K CO release” value [2] is on record?
**A.** Its value is 1.28 ± 0.183 h⁻¹.

**Q.** Which “LPS-induced TNF-α expression / secretion” value (TNF-α) does the source give for `Cc1c2c(c3c(c1-c1ccccc1)-c1cccc4cccc-3c14)C(=O)N(C(C)C)CC2` [Compound 44c] here?
**A.** The value was “did not show any TNF-α suppression effects”.

**Q.** For `C#CC(C)NC(=O)C1=C2C(=C(c3ccccc3)C1=O)c1cccc3cccc2c13` (centres unmarked) [Compound 108], which “K CO release” value [2] is on record?
**A.** The value was 0.058 ± 0.003 h⁻¹.

**Q.** With `C#CCNC(=O)C1=C2C(=C(c3ccccc3)C1=O)c1cccc3cccc2c13` [Compound 10f] as the molecule, how does the λem emission wavelength [3] read?
**A.** The λem emission wavelength was 456 nm.

**Q.** And the λex excitation wavelength [3]?
**A.** The λex excitation wavelength was 370 nm.

**Q.** And the Φ quantum yield [3]?
**A.** The Φ quantum yield was 0.18.

**Q.** Which “k CO release rate” value [5] does the source give for `CN(CC#C[Si](c1ccccc1)(c1ccccc1)C(C)(C)C)C(=O)C1=C2C(=C(c3ccccc3)C1=O)c1cccc3cccc2c13` [Compound 10d] here?
**A.** The value was 22.6 ± 0.2 h⁻¹.

**Q.** And the “LPS-induced TNF-α expression / secretion” value (TNF-α)?
**A.** Its value is “suppressed TNF-α secretion, but it did not show any dose-dependent effect”.

**Q.** And the λem emission wavelength [3]?
**A.** Its λem emission wavelength is 456 nm.

**Q.** And the λex excitation wavelength [3]?
**A.** The λex excitation wavelength was 378 nm.

**Q.** And the Φ quantum yield [3]?
**A.** Its Φ quantum yield is 0.21.

**Q.** For `C#CC(C)(C)OC(=O)C1=C2C(=C(SC)C1=O)c1cccc3cccc2c13` [Compound 112], which “K CO release” value [2] is on record?
**A.** The value was 1.29 ± 0.07 h⁻¹.

**Q.** For `C#CC(C)OC(=O)C1=C2C(=C(c3ccccc3)C1=O)c1cccc3cccc2c13` (centres unmarked) [Compound 104], which “K CO release” value [2] is on record?
**A.** Its value is 0.012 ± 0.0003 h⁻¹.

**Q.** With `C#CC(C)OC(=O)C1=C(c2ccccc2)C(c2ccccc2)=C(c2ccccc2)C1=O` (centres unmarked) [Compound 120] as the molecule, how does the “K CO release” value [2] read?
**A.** Its value is 9.4 ± 0.02 h⁻¹.

**Q.** For `C#CCOC(=O)C1=C(c2ccccc2)C(c2ccccc2)=C(c2ccccc2)C1=O` [Compound 119], which “K CO release” value [2] is on record?
**A.** The value was 5.89 ± 0.61 h⁻¹.

**Q.** For `CN1Cc2c(c3c(c(-c4ccccc4)c2[Si](c2ccccc2)(c2ccccc2)C(C)(C)C)-c2cccc4cccc-3c24)C1=O` [Compound 44d], which “LPS-induced TNF-α expression / secretion” value (TNF-α) is on record?
**A.** Its value is “did not show any TNF-α suppression effects”.

**Q.** For `C#CCN(c1ccccc1C1=C2C(=C(C(=O)N3CCOCC3)C1=O)c1cccc3cccc2c13)S(C)(=O)=O` [Compound 127], which “K CO release” value [2] is on record?
**A.** Its value is 0.88 ± 0.01 h⁻¹.

**Q.** Which results are given for `OC[C@@H]1[C@H]2CCc3c(c(-c4ccccc4)c(-c4ccccc4)c(-c4ccccc4)c3-c3ccccc3)CC[C@@H]12` [Compound 31]?
**A.** cytotoxicity (RAW cells; [6]): Neither 6a (FIG. 3b) and nor the product (FIG. 3c) displayed any sign of cytotoxicity; cytotoxicity (RAW cells; 24 h, within the concentration range tested): not cytotoxic

**Q.** For `C#CC(C)(C)NC(=O)C1=C2C(=C(c3ccccc3)C1=O)c1cccc3cccc2c13` [Compound 109], which “K CO release” value [2] is on record?
**A.** Its value is 3.31 ± 0.28 h⁻¹.

**Q.** For `C#CCCN(CCN1CCOCC1)C(=O)C1=C2C(=C(c3ccccc3)C1=O)c1cccc3cccc2c13` [Compound 110], which “time in which CO release was finished” value [2] is on record?
**A.** Its value is “CO release was finished in 4 h”.

**Q.** With `CC(C)N1CCc2cc(-c3ccccc3)c3c(c2C1=O)-c1cccc2cccc-3c12` [Compound 44b] as the molecule, how does the survival rate (TNBS induced colitis; 15 mg/kg i.p. 1 h before and 24, 48, 72 h after TNBS) read?
**A.** The survival rate was “no similar effects were observed”.

**Q.** What about the colon length (TNBS induced colitis; [7]) of the same molecule?
**A.** Its colon length is “no similar effects were observed”.

**Q.** What about the colon thickness (TNBS induced colitis; [7]) of the same molecule?
**A.** Its colon thickness is “no similar effects were observed”.

**Q.** And the injury score (TNBS induced colitis; [7])?
**A.** Its injury score is “no similar effects were observed”.

**Q.** What about the “LPS-induced TNF-α expression / secretion” value (TNF-α) of the same molecule?
**A.** The value was “did not show any TNF-α suppression effects”.

**Q.** For `C#CC(C)Oc1ccccc1C1=C2C(=C(C(=O)N3CCOCC3)C1=O)c1cccc3cccc2c13` (centres unmarked) [Compound 125], which “K CO release” value [2] is on record?
**A.** The value was 0.10 ± 0.003 h⁻¹.

**Q.** With `C1#CCCCCCC1` [cyclooctyne] as the molecule, how does the “time in which reaction with TPCPD finished” value [1] read?
**A.** Its value is 15 min.
